Results on one compound are retold here after US20030198674A1, “Controlled release pharmaceutical dosage forms of a cholesteryl ester transfer protein inhibitor” (priority 2002, published 2003).

Data set [1] is described as follows: Aqueous solubility of Drug A. The format is physicochemical.
Data set [2] is described as follows: Single-dose plasma Drug A concentration vs. time curve fitted to 2-compartment PK model. In kind it is in vivo, Human. The protocol: Pharmacokinetic (PK) constants were derived by fitting this curve to a 2-compartment PK model, assuming a small intestinal transit time of 4 hr, and a gastric emptying time of 15 min.
A short description of data set [3]: Plasma half-life of Drug A. In kind it is in vivo.
Setting [4] is: 120 mg Drug A, fitted 2-compartment model.

Usually solubility stands for how much of the substance goes into solution per volume.

Values after ≈ are worked out from the molar mass of the structure shown. Read-outs that look alike come from different tables or passages of the source.

For `CCOC(=O)N1c2ccc(C(F)(F)F)cc2[C@@H](N(Cc2cc(C(F)(F)F)cc(C(F)(F)F)c2)C(=O)OC)C[C@H]1CC` [Drug A, [2R,4S] 4-[(3,5-bis-trifluoromethyl-benzyl)-methoxycarbonyl-amino]-2-ethyl-6-trifluoromethyl-3,4-dihydro-2H-quinoline-1-carboxylic acid ethyl ester], in data set [1], the aqueous solubility entry was “about 0.04 microgm/ml”. Further, the solubility in data set [1] (water (aqueous), accurate measurements, crystalline) is around 0.01 µg/mL (≈ 0.0167 µM). In addition, the solubility in data set [1] (water, read-out: solubility in water) is below 1 µg/mL. Moreover, in data set [2] (setting [4]), the “Absorption Ka” value came out at 2.27 h⁻¹, the K12 was 0.017 h⁻¹ and the K21 came to 0.002 h⁻¹. The “Kel (Elimination Rate Constant)” value in data set [2] (calculated from Cl/Vd) is 0.042 h⁻¹. Besides, in data set [2] (human, plasma, oral, 120 mg, read-out: Clearance (Cl) (converted)), the clearance is 218 mL/min. Besides, the Vd in data set [2] (human, plasma, oral, 120 mg, read-out: Volume of distribution (Vd)) turned out to be 174 L. Besides, the half-life in data set [3] (read-out: additional long terminal elimination half-life) lay in the range of 100 to 200 h. For the same compound, the half-life in data set [3] (read-out: effective plasma terminal half-life (t1/2)) fell in the range of 30 to 70 h.
